From ChEMBL document CHEMBL5724914, “Linking interpersonal differences in gut microbiota composition and drug biotransformation activity” (2024)

Legend:
[1] = (§1) The drug is tested on Z-024 corresponding to pig gut metagenome with ENA study accession number: PRJEB37062 and ENA sample accession number: ERS12561823 for biotransformation under anaerobic condition. The drug concentrations were measured over 9 timepoints collected between 0 and 24 hours of incubation by liquid-chromatography-coupled mass spectrometry (LC–MS); details: 2 µM
[2] = human gut metagenome, 24 h, 2 µM
[3] = as §1, with “WLS-069” for “Z-024”, “human” for “pig”, “ERS12561748” for “ERS12561823”; details: 2 µM
[4] = human gut metagenome, 24 h, 2 µM; remark: listed apart in the source
[5] = human gut metagenome, 24 h, 2 µM; remark: listed apart in the source
[6] = as §1, with “WLS-010” for “Z-024”, “human” for “pig”, “ERS12561743” for “ERS12561823”; details: 2 µM
[7] = human gut metagenome, 24 h, 2 µM; remark: listed apart in the source
[8] = human gut metagenome, 24 h, 2 µM; remark: listed apart in the source
[9] = human gut metagenome, 24 h, 2 µM; remark: listed apart in the source
[10] = as §1, with “WLS-086” for “Z-024”, “human” for “pig”, “ERS12561752” for “ERS12561823”; details: 2 µM
[11] = human gut metagenome, 24 h, 2 µM; remark: listed apart in the source
[12] = as §1, with “Z-009” for “Z-024”, “ERS12561809” for “ERS12561823”; details: 2 µM
[13] = as §1, with “WLS-082” for “Z-024”, “human” for “pig”, “ERS12561751” for “ERS12561823”; details: 2 µM
[14] = human gut metagenome, 24 h, 2 µM; remark: listed apart in the source
[15] = as §1, with “Z-027” for “Z-024”, “to” for “to pig gut”, “ERS12561826” for “ERS12561823”; details: 2 µM
[16] = as §1, with “Z-004” for “Z-024”, “to” for “to pig gut”, “ERS12561804” for “ERS12561823”; details: 2 µM
[17] = as §1, with “Z-026” for “Z-024”, “to” for “to pig gut”, “ERS12561825” for “ERS12561823”; details: 2 µM
[18] = as §1, with “Z-022” for “Z-024”, “mouse” for “pig”, “ERS12561821” for “ERS12561823”; details: 2 µM
[19] = as §1, with “Z-005” for “Z-024”, “to” for “to pig gut”, “ERS12561805” for “ERS12561823”; details: 2 µM
[20] = human gut metagenome, 24 h, 2 µM; remark: listed apart in the source
Also: call rule not given here.

Bacterial Biotransformation [1] | Bacterial Biotransformation [2] | Bacterial Biotransformation [3] | Bacterial Biotransformation [4] | Bacterial Biotransformation [5] | Bacterial Biotransformation [6] | Bacterial Biotransformation [7] | Bacterial Biotransformation [8] | Bacterial Biotransformation [9] | Bacterial Biotransformation [10] | Bacterial Biotransformation [11] | Bacterial Biotransformation [12] | Bacterial Biotransformation [13] | Bacterial Biotransformation [14] | Bacterial Biotransformation [15] | Bacterial Biotransformation [16] | Bacterial Biotransformation [17] | Bacterial Biotransformation [18] | Bacterial Biotransformation [19] | Bacterial Biotransformation [20] | Structure (SMILES)
Compound metabolized | Compound NOT metabolized | Compound NOT metabolized | Compound metabolized | Compound NOT metabolized | Compound NOT metabolized | Compound NOT metabolized | Compound NOT metabolized | Compound NOT metabolized | Compound NOT metabolized | Compound NOT metabolized | Compound NOT metabolized | Compound NOT metabolized | Compound NOT metabolized | Compound NOT metabolized | Compound NOT metabolized | Compound NOT metabolized | Compound NOT metabolized | Compound NOT metabolized | Compound NOT metabolized | NS(=O)(=O)c1cc2c(cc1Cl)N=C(CSCc1ccccc1)NS2(=O)=O [BENZTHIAZIDE]
Compound metabolized | Compound NOT metabolized | Compound NOT metabolized | Compound metabolized | Compound metabolized | Compound NOT metabolized | Compound metabolized | Compound metabolized | Compound metabolized | Compound metabolized | Compound metabolized | Compound metabolized | Compound NOT metabolized | Compound NOT metabolized | Compound NOT metabolized | Compound NOT metabolized | Compound NOT metabolized | Compound metabolized | Compound NOT metabolized | Compound metabolized | CC(C)NCC(O)COc1ccc(COCCOC(C)C)cc1.CC(C)NCC(O)COc1ccc(COCCOC(C)C)cc1.O=C(O)/C=C/C(=O)O (centres undefined) [BISOPROLOL FUMARATE]
Compound NOT metabolized | Compound metabolized | Compound metabolized | Compound metabolized | Compound metabolized |  | Compound metabolized | Compound metabolized | Compound metabolized | Compound metabolized | Compound metabolized | Compound NOT metabolized | Compound metabolized | Compound metabolized | Compound metabolized | Compound metabolized | Compound metabolized | Compound NOT metabolized | Compound NOT metabolized | Compound metabolized | COc1ccc2[nH]c([S+]([O-])Cc3ncc(C)c(OC)c3C)nc2c1 (centres undefined) [OMEPRAZOLE]

Second part, the compound before the results:

Structure (SMILES) | Bacterial Biotransformation [1] | Bacterial Biotransformation [2] | Bacterial Biotransformation [3] | Bacterial Biotransformation [4] | Bacterial Biotransformation [5] | Bacterial Biotransformation [6] | Bacterial Biotransformation [7] | Bacterial Biotransformation [8] | Bacterial Biotransformation [9] | Bacterial Biotransformation [10] | Bacterial Biotransformation [11] | Bacterial Biotransformation [12] | Bacterial Biotransformation [13] | Bacterial Biotransformation [14] | Bacterial Biotransformation [15] | Bacterial Biotransformation [16] | Bacterial Biotransformation [17] | Bacterial Biotransformation [18] | Bacterial Biotransformation [19] | Bacterial Biotransformation [20]
CCOC(=O)[C@H](CCc1ccccc1)N[C@@H](C)C(=O)N1[C@H](C(=O)O)C[C@@H]2CCC[C@@H]21 | Compound metabolized | Compound metabolized | Compound metabolized | Compound metabolized | Compound metabolized | Compound metabolized | Compound metabolized | Compound metabolized | Compound metabolized | Compound metabolized | Compound metabolized | Compound metabolized | Compound metabolized | Compound metabolized | Compound NOT metabolized | Compound metabolized | Compound NOT metabolized | Compound metabolized | Compound metabolized | Compound metabolized
CCN(CC)CCNC(C(=O)OCCC(C)C)c1ccccc1.Cl.Cl (centres undefined) | Compound metabolized | Compound metabolized | Compound metabolized | Compound metabolized | Compound metabolized | Compound metabolized | Compound metabolized | Compound metabolized | Compound metabolized | Compound metabolized | Compound metabolized | Compound metabolized | Compound metabolized | Compound NOT metabolized | Compound NOT metabolized | Compound NOT metabolized | Compound NOT metabolized | Compound metabolized | Compound metabolized | Compound metabolized
CCCC(=O)Nc1ccc(OCC(O)CNC(C)C)c(C(C)=O)c1 (centres undefined) [ACEBUTOLOL] | Compound NOT metabolized | Compound metabolized | Compound metabolized | Compound metabolized | Compound NOT metabolized | Compound NOT metabolized | Compound metabolized | Compound metabolized | Compound metabolized | Compound metabolized | Compound metabolized | Compound NOT metabolized | Compound NOT metabolized | Compound NOT metabolized | Compound NOT metabolized | Compound NOT metabolized | Compound NOT metabolized | Compound metabolized | Compound NOT metabolized | Compound metabolized
C=CCc1ccccc1OCC(O)CNC(C)C (centres undefined) [ALPRENOLOL] | Compound metabolized | Compound metabolized | Compound NOT metabolized | Compound metabolized | Compound NOT metabolized | Compound NOT metabolized | Compound metabolized | Compound metabolized | Compound NOT metabolized | Compound metabolized | Compound NOT metabolized | Compound NOT metabolized | Compound NOT metabolized | Compound NOT metabolized | Compound metabolized | Compound NOT metabolized | Compound metabolized | Compound metabolized | Compound NOT metabolized | Compound NOT metabolized
CCOC(=O)[C@H](CCc1ccccc1)N[C@H]1CCc2ccccc2N(CC(=O)O)C1=O [BENAZEPRIL] | Compound metabolized | Compound metabolized | Compound metabolized | Compound metabolized | Compound metabolized | Compound metabolized | Compound metabolized | Compound metabolized | Compound metabolized | Compound metabolized | Compound metabolized | Compound metabolized | Compound metabolized | Compound metabolized | Compound NOT metabolized | Compound metabolized | Compound metabolized | Compound metabolized | Compound metabolized | Compound metabolized
